Values quoted from earlier work, collected in article PMC8661056, “Synthesis and Evaluation of [^11C]7-Halogen-2-Phenyl Isoindolone Derivatives: Potential PET Radioligands for in vivo Imaging of 5-HT2C Receptors” (Frontiers in Neuroscience, 2021).

Key:
5-HT2CR = tested on: 5-HT2CR; design: method as in Kim et al., 2017; conditions: rat brain; ref Kim et al., 2017; cited from earlier work
5HT2CR = target: 5HT2CR; design: method as in Finnema et al., 2014; conditions: ref Finnema et al., 2014; cited from earlier work
5HT2AR = target: 5HT2AR; design: method as in Finnema et al., 2014; conditions: ref Finnema et al., 2014; cited from earlier work

**Q.** Which “ratios of uptake in regions of interest to cerebellum” value (5-HT2CR) does the source give for `C[C@H](Cc1cccc([18F])c1)Oc1nc(N2CCNC[C@H]2C)ncc1F` [[^18F]4, [^18F]4-(3-Fluorophenethoxy)pyrimidine] here?
**A.** The value was “low to moderate”.

**Q.** With `COc1cc(CCNCc2ccccc2O[11CH3])c(OC)cc1Br` [[^11C]Cimbi-36] as the compound, how does the Ki (5HT2CR) read?
**A.** Its Ki is 1.7 nM.

**Q.** And the Ki (5HT2AR)?
**A.** Its Ki is 0.5 nM.
